Values of other authors as cited in paper PMC3368153 (Nature chemical biology, 2012).

Legend:
[1] = test system: γ2 F77I GABAAR; conditions: versus wild type
[2] = test system: α1 Y209A GABAAR; conditions: versus wild type
[3] = test system: γ2 F77Y GABAAR; conditions: versus wild type
[4] = test system: γ2 F77L GABAAR
[5] = test system: α1 H101R mutation GABAAR
[6] = test system: α1 His101 replaced by glutamine, GABAAR; conditions: versus wild type
[7] = test system: α1 H101C GABAAR; conditions: versus wild type

Compound: CN1C(=O)CN=C(c2ccccc2)c2cc(Cl)ccc21 [diazepam]
- loss of affinity (factor), γ2 F77I [1]: 4-5
- decrease in binding affinity (factor), α1 Y209A [2]: 40
- affinity loss (factor), γ2 F77Y [3]: 250
- tolerance of point mutation γ2 F77L (affinity) [4]: tolerated well

Compound: CCOC(=O)c1ncn2c1CN(C)C(=O)c1cc(F)ccc1-2 [flumazenil]
- loss of affinity (factor), γ2 F77I [1]: 2,000
- decrease in binding affinity (factor), α1 Y209A [2]: 41
- tolerance of point mutation γ2 F77L (affinity) [4]: tolerated well
- affinity in α1 H101R mutant [5]: tolerate this mutation

Compound: CN1C(=O)CN=C(c2ccccc2F)c2cc([N+](=O)[O-])ccc21 [flunitrazepam]
- loss of affinity (factor), glutamine at α1 His101 [6]: 15
- loss of affinity (factor), cysteine at α1 His101 [7]: 200
- affinity in α1 H101R mutant [5]: drastically reduced affinity

Compound: Ro15-8670
- loss of affinity (factor), γ2 F77I [1]: 4-5

Compound: dichlorodiazepam
- affinity loss (factor), γ2 F77Y [3]: 700

Compound: monochlorodiazepam
- affinity loss (factor), γ2 F77Y [3]: 530
